Source: PMC10887108, “Novel Brain-Penetrant, Small-Molecule Tubulin Destabilizers for the Treatment of Glioblastoma” (Biomedicines, 2024)

Experiments:
[1] = Plasma protein binding (dialysis); assay type: in vitro ADME; conditions: range over mouse, rat, and human plasma
Experimental: Compounds (5 µM/0.2% DMSO) were tested in dialysis chambers. Blank dialysis buffer was added to the receiver side (100 μL), and plasma (100 μL) with test and reference compounds was added to the donor side of the chamber and incubated at 37 °C on an orbital shaker. Plasma was precipitated at 0 and 5 h. Aliquots from donor and receiver sides of the dialysis apparatus (25 μL) were added to sample preparation plates and mixed with aliquots of the opposite matrix (25 μL, blank buffer to plasma and vice versa). Samples were quenched with stop solution (400 μL) containing internal standard, vortexed at 600 rpm for 10 min, and centrifuged at 4000 rpm for 10 min. Supernatants were analyzed by LC-MS. Quinidine and warfarin were used as positive controls.

[2] = Metabolite profiling in cryopreserved hepatocytes; assay type: in vitro ADME; conditions: mouse, rat, dog, monkey, and human hepatocytes, 120 min
Experimental: Metabolite profiling was carried out by WuXi DMPK (Nanjing, China). RGN3067 (10 μM) was profiled in CD-1 mice (BioIVT, Westbury, NY, USA), SD rats (BioIVT), beagle dogs (BioIVT), cynomolgus monkeys (Research Institute for Liver Diseases [RILD], Shanghai, China), and human cryopreserved hepatocytes (BioIVT). The positive control was 7-ethoxycoumarin (30 μM). Compounds were added to hepatocytes (400 µL, 1 × 10^6/mL), and reactions were carried out at 37 °C in 5% CO2/saturated humidity for 120 min. Reactions were stopped by the addition of ice-cold ACN (400 μL). Samples were shaken at 300 rpm for 10 min, then centrifuged at 13,000× g for 10 min. Supernatants were evaporated under a stream of N2. Residue from the RGN3067 incubation was reconstituted with ACN: H2O (200 μL, v:v, 3:7), followed by centrifugation at 14,000 rpm for 10 min, and the supernatant was used for qualitative and semi-quantitative analysis using LC-UV/HRMS. A Shimadzu UFLC-20A with autosampler was used for chromatographic separation. Detection and structure were determined using a Thermo Q-Extractive mass spectrometer in full MS/MS^2 scan mode and Xcalibur Data Acquisition and Interpretation Software v4.2.

[3] = tested on: HMC3 microglial cells (non-tumorigenic); assay: alamarBlue cell viability assay, HMC3; assay type: cell-based, human; conditions: HMC3, up to 10 μM
Experimental: Cells (100 µL/well) were seeded in 96-well tissue culture plates (Greiner Bio-One 650090; Kremsmünster, Austria). The plating density (cells/well) for each cell line was as follows: LN-18 (3000), U87 (4000), and HMC3 (5000). After overnight incubation, compounds were added to the cells (50 µL at 3× concentration, final 0.1% DMSO), and plates were incubated for 72 h. Cell viability was assessed by the addition of 25 µL of alamarBlue for a final concentration of 100 µM final concentration (Resazurin redox reagent, Sigma-Aldrich R7017; St. Louis, MO, USA). After a 4 h incubation, fluorescence was read on a CLARIOstar Plus plate reader (BMG Labtech, Ortenberg, Germany) at EX 570/EM 590 nm.

[4] = tested on: GBM12 patient-derived GB cells; assay: CellTiter-Glo viability assay, patient-derived GBM12 cells; assay type: cell-based; conditions: Homo sapiens, GBM12, 144 h, read-out: IC50 cell viability
Experimental: Short-term cultures of patient-derived cells GBM12, GBM15, GBM39 and GBM43 (used with permission Mayo Foundation) were seeded (1000 cells/well) in solid white Corning 384-well plates (Corning, NY, USA) and cultured overnight. Cells were treated with DMSO or RGN3067 in a 13-point dose response with a 1:3 serial dilution from an initial concentration of 100 μM. After 144 h, cell viability was measured using CellTiter-Glo (Promega, Madison, WI, USA). Data were normalized to DMSO control, and absolute IC50 values were calculated using GraphPad Prism 10 (San Diego, CA, USA).

[5] = tested on: U87 cells (microtubule network); assay: Immunofluorescent staining of cellular β-tubulin; assay type: cell-based, human; conditions: U87, compounds at their IC50 concentrations, 24 h
Experimental: U87 cells (4000/well) were plated in black 96-well plates (Perkin Elmer 6055302; Waltham, MA, USA) and grown overnight. Cells were treated with compounds for 24 h, fixed with 4% paraformaldehyde for 20 min, and permeabilized with FoxP3 permeabilization buffer (eBioscience/Thermo Fisher Scientific 00-5523-00; Waltham, MA, USA) for 10 min at RT. Cells were incubated with an anti-TUBB3 (Tuj1) antibody (1:1000; […] Technologies 60052; Vancouver, BC, Canada) labeled with Hoechst 33342 dye (1:2000; Thermo Fisher Scientific H3570; Waltham, MA, USA). Images (40×) were taken with an automated high-content imaging microscope (Operetta, Perkin Elmer; Waltham, MA, USA).

[6] = molecular target: T1, Porcine tubulin (colchicine binding site) (Sus scrofa, UniProt P02554); assay: Colchicine competitive binding assay (fluorescence); conditions: compound 50 µM, colchicine 10 μM, tubulin 20 μM
T1 construct: purchased Cytoskeleton, Inc. T240; host or cells: brain tissue (purified)

[7] = Maximum tolerated dose study; assay type: in vivo; conditions: 25, 50, 100 or 200 mg/kg oral twice daily for 5 days + 5 days observation
Experimental: ; 6 mice per group, including vehicle control). One mouse from each group was euthanized for PK analysis at 6 h post-initial dose. The weight and physical states of the animals were monitored during the 5 days of treatment and for 5 days following drug administration. […]

[8] = tested on: GBM12 patient-derived xenograft; assay: Subcutaneous GBM12 PDX efficacy model; assay type: in vivo, athymic nude female mice; conditions: 100 mg/kg oral BID, 5 days on/2 days off, four cycles
Experimental: Animal protocols were approved by the Animal Care and Use Committee (ACUC) of the institutes and CRO labs. All studies were performed in compliance with the guidelines. GBM12 cells (5 × 10^6) were injected subcutaneously into athymic nude female mice aged 4–6 weeks. Subcutaneous (SC) tumor size was measured using an external caliper. The greatest longitudinal diameter (length) and the greatest transverse diameter (width) were determined while mice were scruffed and conscious. Tumor volume was calculated by the modified ellipsoidal formula: V = ½ (Length × Width^2). RGN3067 solution was prepared for each mouse. RGN3067 (9.91 mg) was dissolved in DMSO (17 µL) by vortexing for 30–60 s. Approximately 69 μL of PEG400: PVP (95:5, Sigma-Aldrich; St. Louis, MO, USA) solution was added and vortexed.
After tumors reached 100–150 mm^3, mice were dosed with RGN3067 solution (43 µL, 100 mg/kg) or vehicle control twice daily by oral gavage (total dose was 200 mg/kg). Mice were dosed using cycles of 5 days on/2 days off, for a total of four cycles. Mice were euthanized once the tumor reached 2000 mm^3.

Question: What does the source list for `CO[C@H]1C[C@@H](C(=O)NC(=O)Nc2ccc(Oc3ccc(Cl)cn3)c(C)c2)C1` [RGN3067]?
Answer: fraction unbound at 5 h, 5 µM [1]: 0.018 to 0.026; number of metabolites detected and identified [2]: 10; inhibition of cell viability [3]: does not significantly inhibit; IC50 [4]: 148 nM; effect on tubulin organization / MT network morphology [5]: varying levels of disruption of tubulin organization; reduction of colchicine–tubulin fluorescence relative to control [6]: 24%; body weight loss [7]: no statistically significant weight loss was observed; behavior, appearance and weight loss [8]: No changes in behavior or appearance (hair and skin) or statistically significant weight loss was observed; inhibition of tumor growth (tumor volume) ([8]; from day 14 to end of study): statistically significant inhibition of tumor growth
